From patent publication US10160948B2, “Pluripotent embryonic-like stem cells, compositions, methods and uses thereof” (ABT HOLDING COMPANY, priority 1999, dated 2018) come the findings set out here.

Experiment [1] has as its system phenotypic expression markers (ectodermal, mesodermal, endodermal, embryonic). Put plainly: Immunochemical and histochemical phenotypic analysis of human cell lines incubated with serum + insulin (I) + dexamethasone (D). It is filed as cell-based. As for the experimental part:
Additional immunochemical and histochemical studies were performed with a series of human cell lines. Human cells CF-NHDF2 (derived from person dermis) were propogated to various doubling numbers (cell doublings of between 12 and 47), and examined, as above, for multiple induced mesodermal, ectodermal, endodermal and embryonic lineages. Human cells CM-SkM2 and CF-SkM2, were similarly examined, after propogation to 12 cell doublings. TABLES 7-9 provides the results of examination of the human cells CF-NHDF2 at progressive cell doublings, under different growth conditions. TABLE 10 provides the results of examination of the human cells CM-SkM2, and CF-SkM2 at progressive cell doublings, under different growth conditions.
Phenotypic Analysis. The cryopreserved cells were thawed and seeded at 1×10^3 cells per well of 1% gelatinized 96-well plates (Corning, Corning, N.Y.).15,16 The cell lines were incubated with CM only (non-induced) or CM+insulin and/or dexamethasone in a comparison/contrast analysis system to ascertain induced phenotypic expression.7,15 In this assay, insulin accelerates phenotypic expression of lineage-committed progenitor cells but has no effect on the induction of lineage-commitment and subsequent phenotypic expression in pluripotent cells.
Cells were cultured for 30-56 days in CM, CM+[…] insulin, or CM+10^−6M Dexamethasone+/−insulin+1%, 5%, or 10% horse serum. […]

The test system of a further experiment is progenitor stem cells. Put plainly: Proliferation and phenotypic responses to bioactive factors: progenitor cells. Type of experiment: cell-based. The source says:
Having access to mixed populations of progenitor stem cells, progenitor stem cell clones, and pluripotent stem cell clones permits one to address the influence of various bioactive factors (e.g. recombinant growth factors, purified compounds, and novel inductive factors) on the growth characteristics and phenotypic expression of these stem cells.
Cryopreserved cells are thawed and plated in MSC-1 at 5, 10, or 20×10^3 cells per well of gelatinized 24-well plates following the standard protocol. Twenty-four hours after initial plating the medium is changed to testing medium (TM) 1 to 6 (TM-1, TM-2, TM-3, TM-4, TM-5, or TM-6). TM-1 to TM-4 consist of Ultraculture (cat. no. 12-725B, lot. nos. OMO455 [TM-1], 1M1724 [TM-2], 2M0420 [TM-3], or 2M0274 [TM-4], Bio-Whittaker, Walkersville, Md.), medium (EMEM or Opti-MEM 0.01 mM β-mercaptoethanol), and 1% (v/v) antibiotic-antimycotic, pH 7.4. TM-5 consists of 98% (v/v) medium, 1% (v/v) HS, and 1% (v/v) antibiotic-antimycotic, pH 7.4. TM-6 consists of 98.5% (v/v) medium, 0.5% (v/v) HS, and 1% (v/v) antibiotic-antimycotic, pH 7.4. […] Four testing media (TM#'s 1-4), each containing various concentrations of Ultraculture, were used as. […] The four Ultraculture-based testing media were: TM-1=15% (v/v) Ultraculture (Lot no. OMO455): 84% (v/v) medium: 1% (v/v) antibiotics; TM-2=15% (v/v) Ultraculture (Lot no. 1M1724): 84% (v/v) medium: 1% (v/v) antibiotics; TM-3=50% (v/v) Ultraculture (Lot no. 2M0420): 49% (v/v) medium: 1% (v/v) antibiotics; and TM-4=75% (v/v) Ultraculture (Lot no. 2M0274): 24% (v/v) medium: 1% (v/v) antibiotics. Pre-incubation for 24 hr in testing medium alone is used to wash out any potential synergistic components in the MSC-1 medium. Twenty-four hours later the testing medium is changed to one of the following. For controls, TM-1 to TM-6 alone is used. To identify clones of progenitor cells, the medium is replaced with TM-1 to TM-6 containing 2 μg/ml insulin (Sigma), an agent that accelerates the appearance of phenotypic expression markers in progenitor cells (TABLE 12). To identify clones of pluripotent cells, the medium is replaced with TM-1 to TM-6 containing 10^−10 to 10^−6 M dexamethasone (Sigma), a general non-specific lineage-inductive agent (TABLE 13). Control and treated cultures are propagated for an additional 30-45 days with medium changes every other day. Four culture wells are used per concentration per experiment. During the 0-45 day time period the cultures are examined subjectively for changes in morphological characteristics on a daily basis. Alterations in phenotypic expression are correlated with the days of treatment and associated insulin or dexamethasone concentrations. The experiment is then repeated utilizing these parameters to confirm objectively the phenotypic expression markers using established histological, functional/histochemical, ELICA/flow cytometry, and molecular assays (TABLE 13).

On to insulin, for which, in experiment [1], the “effect on morphology and antigen staining of NHDF2 and PAL3 cells” value is given as “No change in morphology or change in antigen staining”. For the same substance, the “Proliferation, Progenitor: number of times the agent increased the DNA content per well versus its respective control” value in the experiment on progenitor stem cells was 2 times. Also, in the experiment on progenitor stem cells (presence and approximate distribution of differentiated phenotypes within the culture wells), the “Phenotypic Expression, Progenitor” value is given as “All+++”.
